Test results taken from patent publication US7973069B2 (PTC Therapeutics, Inc., priority 2004, dated 2011).
“And” between values parts separate entries of the source, which are not always exact repeats. Equal entries are not always repeated.

Tested on: HCV replicon
Format: cell-based

First: CCCOC(=O)Nc1ccc(-c2c(C#N)c3ccc(OC)cc3n2C2CCC2)cc1 [Compound 1074]
Second: CCCOC(=O)Nc1ccc(-c2c(C#N)c3ccc(OCC)cc3n2C2CCCC2)cc1 [Compound 1128]
The IC50 of the first is higher: 0.5 to 2 µM for the first, < 0.5 µM for the second. The second is the more potent here.

`CCn1c(-c2ccc(NS(=O)(=O)C3CC3)cc2)c(C#N)c2ccc(OCCCN3CCOCC3)cc21` [Compound 1117] and `CC(C)OC(=O)Nc1ccc(-c2c(C#N)c3ccc(OCCCN4CCOCC4)cc3n2C2CCC2)cc1` [Compound 1253] fall in the same range of IC50: 0.5 to 2 µM for the first, 0.5 to 2 µM for the second.

`CC(C)NC(=O)Nc1ccc(-c2c(C#N)c3ccc(-c4ccccn4)cc3n2C2CCC2)cc1` [Compound 2440] and `CC(C)NC(=O)Nc1ccc(-c2c(C#N)c3ccc(OCCCn4ccnc4)cc3n2C2CCC2)cc1` [Compound 1308] cannot be ordered by IC50: < 0.5 µM for the first, < 0.5 µM for the second.

`CCn1c(-c2ccc(NC(=O)OC)c(C)c2)c(C#N)c2ccc(OC)cc21` [Compound 963] and `CCn1c(-c2ccc(NC(=O)OC(C)C)c(F)c2)c(C#N)c2ccc(OC)cc21` [Compound 878] fall in the same range of IC50: 0.5 to 2 µM for the first, 0.5 to 2 µM for the second.

First: CCCOC(=O)Nc1cccc(-c2c(C#N)c3ccc(OCCCN4CCOCC4)cc3n2CC)c1 [Compound 1034]
Second: CCCCOC(=O)Nc1cccc(-c2c(C#N)c3ccc(OCCCN4CCOCC4)cc3n2CC)c1 [Compound 1042]
The IC50 of the first is lower: < 0.5 µM for the first, 0.5 to 2 µM for the second. The first is the more potent here.

First: CCOc1ccc2c(C#N)c(-c3ccc(NC(=O)Oc4ccc(OC)cc4)cc3)n(C3CCC3)c2c1 [Compound 978]
Second: CCOc1ccc2c(C#N)c(-c3ccc(NC(=O)OC)cc3)n(C3CCC3)c2c1 [Compound 970]
The IC50 of the first is higher: 0.5 to 2 µM for the first, < 0.5 µM for the second.

`CCCn1c(-c2ccc(NC(=O)NCCc3ccccc3)cc2)c(C#N)c2ccc(OCC)cc21` [Compound 1256] and `CCOc1ccc2c(C#N)c(-c3ccc(NC(=O)NCCc4ccccc4)cc3)n(C(C)C)c2c1` [Compound 1102] cannot be ordered by IC50: < 0.5 µM for the first, < 0.5 µM for the second.

`CCCn1c(-c2cccc(NS(=O)(=O)CC)c2)c(C#N)c2cc(OCc3ccccc3)ccc21` [Compound 919] and `CCOC(=O)Nc1ccc(-c2c(C#N)c3cc(OCc4ccccc4)ccc3n2CC)cc1` [Compound 925] fall in the same range of IC50: 0.5 to 2 µM for the first, 0.5 to 2 µM for the second.

`CC(C)OC(=O)Nc1ccc(-c2c(C#N)c3ccc(OCCNC4CC4)cc3n2C2CCC2)cc1` [Compound 1279] and `CC(OC(=O)Nc1ccc(-c2c(C#N)c3ccc(OCCN(C)C)cc3n2C2CCC2)cc1)C1CC1` (stereo not shown) [Compound 1327] cannot be ordered by IC50: < 0.5 µM for the first, < 0.5 µM for the second.

`CCOc1ccc2c(C#N)c(-c3ccc(NC(=O)OCC(C)(C)C)cc3)n(CC3CC3)c2c1` [Compound 1152] and `CCOc1ccc2c(C#N)c(-c3ccc(NC(=O)OC(C)C)cc3)n(CC3CC3)c2c1` [Compound 1150] cannot be ordered by IC50: < 0.5 µM for the first, < 0.5 µM for the second.

`COc1ccc2c(c1)c(C#N)c(-c1ccc(NS(=O)(=O)C(C)C)cc1)n2C1CCC1` [Compound 1231] and `CCCS(=O)(=O)Nc1ccc(-c2c(C#N)c3cc(OC)ccc3n2C2CCC2)cc1` [Compound 1181] fall in the same range of IC50: 0.5 to 2 µM for the first, 0.5 to 2 µM for the second.

First: CC(C)NC(=O)Nc1ccc(-c2c(C#N)c3cc4c(cc3n2C2CCC2)OCO4)cc1 [Compound 1303]
Second: CCOc1ccc2c(C#N)c(-c3ccc(NC(=O)NC(C)C)cc3)n(C3CCCC3)c2c1 [Compound 1221]
The IC50 of the first is higher: 0.5 to 2 µM for the first, < 0.5 µM for the second. The second is the more potent here.

First: CCCS(=O)(=O)Nc1ccc(-c2c(C#N)c3ccc(OC)cc3n2C2CC2)cc1 [Compound 1235]
Second: CCCS(=O)(=O)Nc1ccc(-c2c(C#N)c3ccc(OCCF)cc3n2C2CCC2)cc1 [Compound 1175]
The IC50 of the first is higher: 0.5 to 2 µM for the first, < 0.5 µM for the second. The second is the more potent here.

First: CCOc1ccc2c(C#N)c(-c3ccc(N(CC)C(=O)OC(C)C)cc3)n(C3CC3)c2c1 [Compound 1237]
Second: CCOc1ccc2c(C#N)c(-c3ccc(NC(=O)OC(C)C)cc3)n(C3CCCC3)c2c1 [Compound 1129]
The IC50 of the first is higher: 0.5 to 2 µM for the first, < 0.5 µM for the second.

First: CCn1c(-c2ccc(N3CCNC3=O)cc2)c(C#N)c2ccc(OCCCN3CCCC3)cc21 [Compound 1085]
Second: CCn1c(-c2ccc(N3CCOC3=O)cc2)c(C#N)c2ccc(OCCCn3cncn3)cc21 [Compound 1084]
The IC50 of the first is lower: < 0.5 µM for the first, 0.5 to 2 µM for the second.

First: CCn1c(-c2ccc(N)c(C)c2)c(C#N)c2ccc(OC)cc21 [Compound 927]
Second: CCn1c(-c2ccc(NS(=O)(=O)C3CC3)c(F)c2)c(C#N)c2ccc(OC)cc21 [Compound 873]
The IC50 of the first is lower: 0.5 to 2 µM for the first, > 2 µM for the second.

`CCn1c(-c2ccc(NC(=O)C(C)(C)C)cc2)c(C#N)c2ccc(OC(F)(F)F)cc21` [Compound 915] and `CCCOC(=O)Nc1ccc(-c2c(C#N)c3ccc(OC(F)(F)F)cc3n2CC)cc1` [Compound 889] fall in the same range of IC50: 0.5 to 2 µM for the first, 0.5 to 2 µM for the second.

`CCCCNC(=O)Nc1ccc(-c2c(C#N)c3ccc(OC(F)(F)F)cc3n2CC)cc1` [Compound 894] and `CCCCNC(=O)Nc1ccc(-c2c(C#N)c3ccc(OCC)cc3n2CC)cc1` [Compound 951] fall in the same range of IC50: 0.5 to 2 µM for the first, 0.5 to 2 µM for the second.

First: CCCNC(=O)Nc1ccc(-c2c(C#N)c3ccc(OC(F)F)cc3n2C2CCC2)cc1 [Compound 1187]
Second: CCCNC(=O)Nc1ccc(-c2c(C#N)c3ccc(OCC)cc3n2C2CCCC2)cc1 [Compound 1144]
The IC50 of the first is higher: 0.5 to 2 µM for the first, < 0.5 µM for the second.

First: CC(C)NC(=O)Nc1ccc(-c2c(C#N)c3ccc(OCCCN4CCN(C)CC4)cc3n2C2CCC2)cc1 [Compound 1307]
Second: CC(C)NC(=O)Nc1ccc(-c2c(C#N)c3ccc(OCCCN4CCCC4)cc3n2C2CCC2)cc1 [Compound 1309]
The IC50 of the first is higher: 0.5 to 2 µM for the first, < 0.5 µM for the second.

`CCOc1ccc2c(c1)c(C#N)c(-c1ccc(NC(=O)OCC3(C)CC3)cc1)n2C1CCC1` [Compound 1294] and `CCOc1ccc2c(c1)c(C#N)c(-c1ccc(NC(=O)OCC3CC3)cc1)n2C1CCC1` [Compound 1291] cannot be ordered by IC50: < 0.5 µM for the first, < 0.5 µM for the second.

`CCCOc1ccc2c(C#N)c(-c3ccc(NC(=O)OC(C)C4CC4)cc3)n(C(C)C)c2c1` (stereo not shown) [Compound 1242] and `CCCOc1ccc2c(C#N)c(-c3ccc(NC(=O)NC4CC4)cc3)n(C(C)C)c2c1` [Compound 1325] cannot be ordered by IC50: < 0.5 µM for the first, < 0.5 µM for the second.

`N#Cc1c(-c2ccc(NS(=O)(=O)C3CC3)cc2)n(C2CCC2)c2cc(OCC3CCCO3)ccc12` (stereo not shown) [Compound 1280] and `CCC(C)OC(=O)Nc1ccc(-c2c(C#N)c3ccc(OCC4CCCO4)cc3n2C2CCC2)cc1` (stereo not shown) [Compound 1283] cannot be ordered by IC50: < 0.5 µM for the first, < 0.5 µM for the second.

`CCOc1ccc2c(c1)c(C#N)c(-c1ccc(NC(=O)NC3CCCC3)cc1)n2C1CCC1` [Compound 1226] and `CCOc1ccc2c(C#N)c(-c3ccc(NC(=O)NC4CCC4)cc3)n(C3CCC3)c2c1` [Compound 1168] cannot be ordered by IC50: < 0.5 µM for the first, < 0.5 µM for the second.

`CCn1c(-c2ccc(N3CC(=O)NC3=O)cc2)c(C#N)c2ccc(OC)cc21` [Compound 994] and `CCCOC(=O)Nc1ccc(-c2c(C#N)c3ccc(OC)cc3n2COC)cc1` [Compound 993] fall in the same range of IC50: 0.5 to 2 µM for the first, 0.5 to 2 µM for the second.

First: CCn1c(-c2ccc(N3CCCS3(=O)=O)cc2)c(C#N)c2ccc(C(F)(F)F)cc21 [Compound 969]
Second: CCn1c(-c2ccc(N(C)S(C)(=O)=O)cc2)c(C#N)c2ccc(C(F)(F)F)cc21 [Compound 1002]
The IC50 of the first is lower: < 0.5 µM for the first, 0.5 to 2 µM for the second. The first is the more potent here.

`CCOc1ccc2c(C#N)c(-c3ccc(NC(=O)OCC4CCC4)cc3)n(C3CCC3)c2c1` [Compound 1158] and `CCOc1ccc2c(C#N)c(-c3ccc(NC(=O)O[C@H](C)C4CC4)cc3)n(C3CCC3)c2c1` [Compound 2174] cannot be ordered by IC50: < 0.5 µM for the first, < 0.5 µM for the second.

`CCOc1ccc2c(C#N)c(-c3ccc(NC(=O)NC(C)C)cc3)n(CC3CCC3)c2c1` [Compound 1171] and `CCOc1ccc2c(C#N)c(-c3ccc(NC(=O)OC(C)C)cc3)n(CC3CCC3)c2c1` [Compound 1169] cannot be ordered by IC50: < 0.5 µM for the first, < 0.5 µM for the second.

Compared with `CCCCS(=O)(=O)Nc1ccc(-c2c(C#N)c3ccc(OC(F)(F)F)cc3n2CC)cc1` [Compound 885], `CCCCOC(=O)Nc1ccc(-c2c(C#N)c3ccc(OC(F)F)cc3n2CC)cc1` [Compound 1133] is higher in IC50: < 0.5 µM for the first, 0.5 to 2 µM for the second. The first is the more potent here.

`CCOc1ccc2c(C#N)c(-c3ccc(NC(=O)OC4CCOCC4)cc3)n(C3CCC3)c2c1` [Compound 1216] and `CCOc1ccc2c(C#N)c(-c3ccc(NC(=O)OCCN4CCOCC4)cc3)n(C3CCC3)c2c1` [Compound 1192] fall in the same range of IC50: 0.5 to 2 µM for the first, 0.5 to 2 µM for the second.

`CCN(CC)CCOc1ccc2c(C#N)c(-c3ccc(NC(=O)OC(C)C)cc3)n(C3CCC3)c2c1` [Compound 1278] and `CCOc1ccc2c(C#N)c(-c3ccc(NC(=O)OC(C)CC)cc3)n(C3CCC3)c2c1` (stereo not shown) [Compound 1265] cannot be ordered by IC50: < 0.5 µM for the first, < 0.5 µM for the second.

First: CCCNC(=O)Nc1ccc(-c2c(C#N)c3ccc(OCC)cc3n2C(C)C)cc1 [Compound 1099]
Second: CCCNC(=O)Nc1ccc(-c2c(C#N)c3ccc(OCC)cc3n2CCC)cc1 [Compound 1095]
The IC50 of the first is higher: 0.5 to 2 µM for the first, < 0.5 µM for the second.

`CC(C)OC(=O)Nc1ccc(-c2c(C#N)c3ccc(OCCCn4ccnc4)cc3n2C2CCC2)cc1` [Compound 1254] and `CC1CCN(CCOc2ccc3c(C#N)c(-c4ccc(NC(=O)OC(C)C)cc4)n(C4CCC4)c3c2)CC1` [Compound 1272] cannot be ordered by IC50: < 0.5 µM for the first, < 0.5 µM for the second.

`CCOP(=O)(Nc1ccc(-c2c(C#N)c3ccc(OC)cc3n2C2CCC2)cc1)OCC` [Compound 1081] and `CCCOC(=O)Nc1ccc(-c2c(C#N)c3ccc(OC)cc3n2CC2CC2)cc1` [Compound 985] fall in the same range of IC50: 0.5 to 2 µM for the first, 0.5 to 2 µM for the second.

Going from `CCOc1ccc2c(C#N)c(-c3ccc(NC(=O)NC4CCCC4)cc3)n(CC3CC3)c2c1` [Compound 1173] to `COc1ccc2c(C#N)c(-c3ccc(NS(=O)(=O)C4CC4)cc3)n(CC3CC3)c2c1` [Compound 982], the IC50 rises from < 0.5 µM to > 2 µM. The first is the more potent here.

First: CCCOC(=O)Nc1ccc(-c2c(C#N)c3ccc(OCCCCl)cc3n2CC)cc1 [Compound 1030]
Second: CCn1c(-c2ccc(NC(=O)OC)cc2)c(C#N)c2ccc(OCCCCl)cc21 [Compound 1029]
The IC50 of the first is lower: < 0.5 µM for the first, 0.5 to 2 µM for the second. The first is the more potent here.

`CCC(C)OC(=O)Nc1ccc(-c2c(C#N)c3ccc(OC(F)F)cc3n2CC2CC2)cc1` (stereo not shown) [Compound 1268] was tested, and the IC50 was 0.5 to 2 µM.

With `CCCNC(=O)Nc1ccc(-c2c(C#N)c3ccc(OCCF)cc3n2CC)cc1` [Compound 955] the IC50 was 0.5 to 2 µM and < 0.5 µM.
For `CCCn1c(-c2ccc(NS(=O)(=O)CC)cc2)c(C#N)c2cc(OC)ccc21` [Compound 996], the IC50 was < 0.5 µM and 0.5 to 2 µM.
For `CCOC(=O)Nc1ccc(-c2c(C#N)c3ccc(OCC)cc3n2C(C)C)cc1` [Compound 1065], the IC50 was 0.5 to 2 µM and < 0.5 µM.
In the case of `CCCCn1c(-c2cccc(NC(=O)OCCC)c2)c(C#N)c2ccc(OCC)cc21` [Compound 1022], the IC50 is reported as < 0.5 µM and > 2 µM.
With `CCOc1ccc2c(C#N)c(-c3ccc(NS(=O)(=O)CCCCl)cc3)n(C3CCC3)c2c1` [Compound 935] the IC50 was < 0.5 µM and 0.5 to 2 µM.
For `CCCn1c(-c2ccc(NS(=O)(=O)CCC)cc2)c(C#N)c2cc(OC)ccc21` [Compound 1041], the IC50 was 0.5 to 2 µM and < 0.5 µM.
